Assay in all cases: growth of human tumour cells (NCI), 48 h
The test system of assay [1] is A498 renal.
The subject of assay [2] is A549 NSCLC.
The test system of assay [3] is HCC-2998 colon.
The subject of assay [4] is HOP-92 NSCLC.
Assay [5] relates to OVCAR-3 ovarian.
Assay [6] concerns OVCAR-4 ovarian.
The subject of assay [7] is SW-620 colon.
Assay [8] relates to T-47D breast.
In assay [9] the test system is U251 CNS.
The subject of assay [10] is UO-31 renal.

Where “and” joins values, the source holds several entries; their conditions need not be identical. Identical values can stand only once.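 Grown in 96-well plates, cells were treated for 48 hours with each compound at five concentrations. Insufficient inhibition: endpoint recorded as highest concentration tested. At the GI50, growth is halved. TGI: concentration producing complete growth inhibition.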

As to `OCCCCC#Cc1ccccc1C#Cc1ccc(O)cc1`, the GI50 was 20.7 µM in assay [1]; 15.8 µM in [2]; 15.4 µM in assay [3]; 17.4 µM in [4]; 14.8 µM in [5]; 15.8 µM in [6]. Also, the GI50 in assay [7] was 18.2 µM; in assay [8], 19.7 µM; in assay [9], 15 µM; in assay [10], 13.2 µM. Further, the TGI is 38.5 µM in assay [1]; 30.8 µM in assay [2]; 30.4 µM in [3]; 36.2 µM in assay [4]; 30.4 µM in [5]; 31.9 µM in assay [6]. Further, the TGI turned out to be 37.1 µM in assay [7], 45.2 µM in assay [8], 29.3 µM in assay [9] and 26.7 µM in assay [10].
Regarding `O=C1NC(N/N=C\C(O)C(O)C(O)C(O)CO)=N/C1=C/c1ccccc1` (stereo not drawn), the GI50 is 45.2 µM and 15.8 µM and > 100 µM in [1]; > 100 µM and 19 µM in assay [2]; > 100 µM and 13.5 µM in assay [3]; 60.1 µM and 15.5 µM and > 100 µM in [4]; 97.1 µM and 20.5 µM and > 100 µM in assay [5]; 52.7 µM and 14.5 µM and > 100 µM in [6]. Further, the GI50 was 54.2 µM and 23 µM and > 100 µM in assay [7]; > 100 µM and 17.5 µM in [9]; > 100 µM and 17.3 µM in assay [10]. The TGI in assay [1] was > 100 µM and 39.5 µM; in [2], > 100 µM and 45.7 µM; in [3], > 100 µM and 41.7 µM; in assay [4] it was > 100 µM and 33.9 µM; in assay [5] it was > 100 µM and 37.7 µM; in [6], > 100 µM and 33.8 µM. The TGI was > 100 µM and 83.4 µM in assay [7]; > 100 µM and 26.7 µM in assay [8]; > 100 µM and 42.8 µM in assay [9]; > 100 µM and 32.2 µM in assay [10].
Regarding `CCC(=O)N1C/C(=C/c2ccc(Cl)cc2)C(=O)/C(=C/c2ccc(Cl)cc2)C1`, the GI50 in assay [1] was 1.5 µM; in [2] it was 0.868 µM; in [3] it was 0.735 µM; in assay [4] it was 1.66 µM; in assay [5] it was 0.622 µM; in assay [6] it was 0.836 µM. The GI50 is 0.287 µM in assay [7], 1.38 µM in [8], 0.28 µM in assay [9] and 1.15 µM in assay [10]. The TGI in assay [1] came to 3.04 µM; in assay [2], 4.14 µM; in assay [3] it was 1.82 µM; in assay [4] it was 4.18 µM; in assay [5], 1.75 µM; in [6], 2.86 µM. The TGI was determined as 0.94 µM in [7], 3.27 µM in assay [8], 0.897 µM in assay [9] and 2.5 µM in assay [10].
With `O=S(=O)(O)O`, the TGI turned out to be 1780 µM in [1]; 1870 µM in assay [2]; 2150 µM in [3]; 2010 µM in assay [4]; 1770 µM in [5]; 2080 µM in assay [6]. For the same compound, the TGI in [7] was 1030 µM; in assay [8], 1770 µM; in assay [9], 1480 µM; in [10] it was 1770 µM.
As for `COc1ccc(C(=O)Cn2c(C(=O)c3ccccc3)nc3ccccc32)cc1`, the GI50 in assay [1] was 2.9 µM; in [2], 6.05 µM; in assay [3] it was 3.2 µM; in [4] it was above 100 µM; in [5] it was 2.59 µM; in assay [6], 9.9 µM. Moreover, the GI50 in assay [7] is 1.15 µM; in assay [8], 3.87 µM; in assay [9] it was 3.62 µM; in [10] it was 13.3 µM. The TGI in [1] is above 100 µM; in assay [2], above 100 µM; in [3] it was above 100 µM; in assay [4] it was above 100 µM; in assay [5], above 21.6 µM; in [6], above 100 µM. Besides, the TGI in assay [7], in assay [8], in assay [9] and in assay [10] was above 100 µM each time.
As to `C[C@H]1[C@H](C)N1CC(O)Cn1ccnc1[N+](=O)[O-]` (stereo partly drawn), the TGI in assay [1], in assay [2], in assay [3], in assay [4], in assay [5] and in [6] was above 100 µM in each case. Further, the TGI in assay [7], in assay [8], in assay [9] and in assay [10] was above 100 µM in each case.
For `COc1cc(-c2nc3ccccc3s2)ccc1OCCCCOc1cc2c(cc1OC)C(=O)N1CCC[C@H]1C=N2`, the GI50 is 1.6 µM in assay [1]; 2.8 µM in assay [2]; 1.1 µM in assay [3]; 0.475 µM in [4]; 0.728 µM in assay [5]; 1.5 µM in assay [6]. Besides, the GI50 in assay [7] is 0.801 µM; in [8], 0.407 µM; in assay [9], 0.489 µM; in assay [10], 1.17 µM. The TGI in [1] was found to be 4.16 µM; in [2] it was 7.91 µM; in [3], 2.69 µM; in [4], 1.19 µM; in [5], 4.78 µM; in [6], 7.61 µM. In addition, the TGI in assay [7] was 2.72 µM; in assay [8], 2.03 µM; in assay [9], 1.63 µM; in assay [10] it was 4.06 µM.
`COc1ccc([C@H](CC(=O)O)N2CCN(CCCc3ccc4c(n3)NCCC4)C2=O)cn1`: the GI50 is 0.0116 µM in assay [1]; 3.07 µM in assay [2]; above 100 µM in assay [3]; 0.0348 µM in [4]; above 100 µM in assay [5]; above 100 µM in [6]. The GI50 was 0.382 µM in [8], 0.934 µM in assay [9] and above 36.7 µM in assay [10]. The TGI in assay [1] was 0.0633 µM; in assay [2], above 30.3 µM; in [3], above 100 µM; in [4], 0.159 µM; in assay [5] it was above 100 µM; in assay [6] it was above 100 µM. The TGI was above 100 µM in assay [7], 4.65 µM in assay [8], above 100 µM in [9] and above 100 µM in assay [10].

Values taken from PubChem BioAssay (NCI).
